IC50 data for 32 compounds are collected here from patent US9586951B2 (FUJIFILM Corporation, priority 2013, dated 2017).

Structures can show the parent of a compound that is named as a salt.

T1 sequence (Q13315 whole entry): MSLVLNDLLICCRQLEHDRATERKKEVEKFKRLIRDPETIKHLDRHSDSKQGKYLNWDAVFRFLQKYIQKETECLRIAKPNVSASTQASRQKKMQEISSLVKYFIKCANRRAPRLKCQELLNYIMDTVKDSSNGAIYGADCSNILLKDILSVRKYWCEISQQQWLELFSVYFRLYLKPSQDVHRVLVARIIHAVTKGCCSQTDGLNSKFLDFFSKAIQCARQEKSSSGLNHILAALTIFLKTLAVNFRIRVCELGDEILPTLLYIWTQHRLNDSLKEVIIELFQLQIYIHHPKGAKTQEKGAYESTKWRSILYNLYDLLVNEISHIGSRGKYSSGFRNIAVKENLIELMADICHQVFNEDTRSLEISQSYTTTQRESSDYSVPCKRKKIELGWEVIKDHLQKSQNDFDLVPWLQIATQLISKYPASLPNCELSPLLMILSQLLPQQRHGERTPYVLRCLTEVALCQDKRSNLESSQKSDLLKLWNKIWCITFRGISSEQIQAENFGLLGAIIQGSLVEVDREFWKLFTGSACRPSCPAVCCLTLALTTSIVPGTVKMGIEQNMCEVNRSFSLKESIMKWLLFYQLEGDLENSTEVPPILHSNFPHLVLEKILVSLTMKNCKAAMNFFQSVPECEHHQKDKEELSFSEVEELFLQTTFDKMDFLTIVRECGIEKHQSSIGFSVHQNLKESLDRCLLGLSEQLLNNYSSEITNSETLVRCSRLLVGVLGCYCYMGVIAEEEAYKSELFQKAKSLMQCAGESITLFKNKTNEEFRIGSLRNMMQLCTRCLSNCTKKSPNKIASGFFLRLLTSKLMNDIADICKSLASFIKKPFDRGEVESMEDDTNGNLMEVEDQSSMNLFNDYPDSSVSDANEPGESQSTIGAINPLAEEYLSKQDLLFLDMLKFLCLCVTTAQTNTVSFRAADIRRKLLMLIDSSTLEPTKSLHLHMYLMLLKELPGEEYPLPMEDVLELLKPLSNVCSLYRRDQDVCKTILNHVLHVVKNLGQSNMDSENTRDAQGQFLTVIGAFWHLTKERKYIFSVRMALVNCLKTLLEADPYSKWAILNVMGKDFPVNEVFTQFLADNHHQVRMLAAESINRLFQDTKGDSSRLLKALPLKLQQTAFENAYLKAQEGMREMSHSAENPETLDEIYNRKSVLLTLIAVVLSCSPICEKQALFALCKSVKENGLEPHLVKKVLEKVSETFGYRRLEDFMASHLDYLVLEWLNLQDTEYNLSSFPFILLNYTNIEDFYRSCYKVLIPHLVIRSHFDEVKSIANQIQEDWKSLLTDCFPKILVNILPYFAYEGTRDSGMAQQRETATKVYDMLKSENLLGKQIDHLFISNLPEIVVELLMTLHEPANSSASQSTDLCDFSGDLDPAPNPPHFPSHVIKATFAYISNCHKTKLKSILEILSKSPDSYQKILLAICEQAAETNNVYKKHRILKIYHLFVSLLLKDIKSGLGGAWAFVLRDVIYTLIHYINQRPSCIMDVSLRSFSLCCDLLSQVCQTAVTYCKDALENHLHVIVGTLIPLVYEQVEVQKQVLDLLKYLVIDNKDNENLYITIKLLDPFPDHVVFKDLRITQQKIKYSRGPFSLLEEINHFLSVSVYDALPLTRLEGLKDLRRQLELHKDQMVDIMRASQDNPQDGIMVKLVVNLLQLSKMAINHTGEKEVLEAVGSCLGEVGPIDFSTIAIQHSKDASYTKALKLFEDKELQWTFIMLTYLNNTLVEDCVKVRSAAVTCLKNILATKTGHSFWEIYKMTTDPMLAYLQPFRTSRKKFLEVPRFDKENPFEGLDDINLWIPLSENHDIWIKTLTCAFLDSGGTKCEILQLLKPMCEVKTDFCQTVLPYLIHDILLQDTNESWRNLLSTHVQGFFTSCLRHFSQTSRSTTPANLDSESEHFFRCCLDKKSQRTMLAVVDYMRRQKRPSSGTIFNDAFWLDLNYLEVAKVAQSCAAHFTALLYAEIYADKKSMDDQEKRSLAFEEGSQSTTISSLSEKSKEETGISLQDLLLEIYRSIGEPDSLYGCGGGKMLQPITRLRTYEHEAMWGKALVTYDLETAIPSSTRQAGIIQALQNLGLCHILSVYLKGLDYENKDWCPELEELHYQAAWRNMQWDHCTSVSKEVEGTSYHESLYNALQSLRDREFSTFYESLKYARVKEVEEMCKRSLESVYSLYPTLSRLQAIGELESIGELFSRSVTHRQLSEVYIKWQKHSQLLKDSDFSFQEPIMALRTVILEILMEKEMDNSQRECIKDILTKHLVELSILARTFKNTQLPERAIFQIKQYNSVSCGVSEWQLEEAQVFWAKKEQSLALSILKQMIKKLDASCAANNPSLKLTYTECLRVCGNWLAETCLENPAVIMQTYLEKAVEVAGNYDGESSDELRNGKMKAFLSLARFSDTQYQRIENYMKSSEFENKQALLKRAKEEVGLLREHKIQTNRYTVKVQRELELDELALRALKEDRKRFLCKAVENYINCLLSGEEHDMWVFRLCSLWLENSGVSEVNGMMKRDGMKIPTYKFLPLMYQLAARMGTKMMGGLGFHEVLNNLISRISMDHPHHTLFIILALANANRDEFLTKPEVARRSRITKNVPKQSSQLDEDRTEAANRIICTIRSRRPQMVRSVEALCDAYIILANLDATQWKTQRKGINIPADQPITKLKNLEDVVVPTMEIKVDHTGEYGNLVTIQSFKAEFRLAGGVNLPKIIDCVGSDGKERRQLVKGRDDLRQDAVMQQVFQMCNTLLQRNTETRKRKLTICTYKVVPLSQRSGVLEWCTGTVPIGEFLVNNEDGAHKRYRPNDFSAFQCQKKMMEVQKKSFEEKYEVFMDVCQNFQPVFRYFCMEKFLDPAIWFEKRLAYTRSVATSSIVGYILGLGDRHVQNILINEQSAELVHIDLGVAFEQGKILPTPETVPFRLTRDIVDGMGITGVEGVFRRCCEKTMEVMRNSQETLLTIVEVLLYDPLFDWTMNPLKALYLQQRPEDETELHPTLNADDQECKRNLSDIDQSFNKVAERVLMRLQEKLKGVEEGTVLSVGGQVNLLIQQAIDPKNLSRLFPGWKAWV

The test has as its target T1, ATM (Homo sapiens, UniProt Q13315).
T1 construct: detecting phosphorylation of Chk2 in a human non-small cell lung cancer cell line NCI-H460 (ATCC company); host or cells: NCI-H460 human non-small cell lung cancer cells
The test is described as follows: ATM inhibition test (phosphorylation of Chk2 generated by ionizing radiation, AlphaScreen SureFire). Format: cell-based. To be noted: phosphorylated Chk2 in NCI-H460 cells, ionizing radiation 8Gy, 1 hour after test compound treatment; read-out: ATM inhibitory activity. The procedure, abridged: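 In NCI-H460 cells, radiation-triggered Chk2 phosphorylation (8Gy, 1 h) is detected by AlphaScreen SureFire following 1 h compound exposure.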
Background: Bead proximity is the source of the signal in Alpha formats.
Regarding `CCN1CCN(CC(C)Nc2ccc3c(c2)Sc2cccc(-c4cc(N5CCOCC5)cc(=O)[nH]4)c2S3)CC1` (centres unmarked) [Example 1-13-13, 6-(7-((1-(4-Ethylpiperazin-1-yl)propan-2-yl)amino)thianthren-1-yl)-4-morpholino pyridin-2(1H)-one], the IC50 was 100 to 500 nM.

`O=c1cc(N2CCOCC2)cc(-c2cccc3c2Oc2ccc(NCc4cccnc4)cc2CC3)[nH]1` [Example 2-51-2, 4-Morpholino-6-(8-((pyridin-3-ylmethyl)amino)-10,11-dihydrodibenz[b,f]oxepin-4-yl)pyridin-2(1H)-one]: the IC50 was in the range of 100 to 500 nM.

Turning to `COc1cncc(CNc2ccc3c(c2)Cc2cccc(-c4cc(N5CCOCC5)cc(=O)[nH]4)c2S3)c1` [Example 3-8-9, 6-(7-(((5-Methoxypyridin-3-yl)methyl)amino)-9H-thioxanthen-4-yl)-4-morpholino pyridin-2 (1H)-one], the IC50 was 100 to 500 nM.

As to `Cn1cc(-c2cncc(CNc3ccc4c(c3)Sc3cccc(-c5cc(N6CCOCC6)cc(=O)[nH]5)c3S4)c2)cn1` [Example 1-12-22, 6-(7-(((5-(1-Methyl-1H-pyrazol-4-yl)pyridin-3-yl)methyl)amino)thianthren-1-yl)-4-morpholino pyridin-2 (1H)-one], the IC50 fell in the range of 100 to 500 nM.

As to `Cc1ccnc(C(CO)Nc2ccc3c(c2)Cc2cccc(-c4cc(N5CCOCC5)cc(=O)[nH]4)c2O3)n1` (centres unmarked) [Example 2-14-82, 6-(7-((2-Hydroxy-1-(4-methylpyrimidin-2-yl)ethyl)amino)-9H-xanthen-4-yl)-4-morpholino pyridin-2(1H)-one], the IC50 lay in the range of 500 to 2000 nM.

Regarding `CC1CCCCN1CC(CO)Nc1ccc2c(c1)Sc1cccc(-c3cc(N4CCOCC4)cc(=O)[nH]3)c1S2` (single isomer, unassigned) [Example 1-37-6, 6-(7-((1-Hydroxy-3-(2-methylpiperidin-1-yl)propan-2-yl)amino)thianthren-1-yl)-4-morpholino pyridin-2(1H)-one], the IC50 fell in the range of 100 to 500 nM.

For the compound `COC[C@H](CN1[C@H](C)CCC[C@@H]1C)Nc1ccc2c(c1)Sc1cccc(-c3cc(N4CCOCC4)cc(=O)[nH]3)c1S2` [Example 1-46-13, 6-(7-(((S)-1-((2R,6S)-2,6- Dimethylpiperidin-1-yl)-3-methoxypropan-2-yl)amino)thianthren-1-yl)-4-morpholino pyridin-2(1H)-one], the IC50 was in the range of 100 to 500 nM.

Consider `O=c1cc(N2CCOCC2)cc(-c2cccc3c2Sc2ccc(NC4CCN(Cc5ccncc5)CC4)cc2S3)[nH]1` [Example 1-24-20, 4-Morpholino-6-(7-((1-(pyridin-4-ylmethyl)piperidin-4-yl)amino)thianthren-1-yl)pyridin-2 (1H)-one], for which the IC50 lay within 100 to 500 nM.

As to `O=c1cc(N2CCOCC2)cc(-c2cccc3c2Oc2ccc(NC4CCN(CCCc5ccccc5)CC4)cc2C3)[nH]1` [Example 2-28-34, 4-Morpholino-6-(7-((1-(3-phenylpropyl)piperidin-4-yl)amino)-9H-xanthen-4-yl) pyridin-2(1H)-one], the IC50 lay within 500 to 2000 nM.

As to `O=c1cc(N2CCOCC2)cc(-c2cccc3c2Oc2ccc(NCc4ccc(CO)o4)cc2C3)[nH]1` [Example 2-13-3, 6-(7-(((5-(Hydroxymethyl)furan-2-yl)methyl)amino)-9H-xanthen-4-yl)-4-morpholino pyridin-2(1H)-one], the IC50 lay within 500 to 2000 nM.

In the case of `Cc1csc(CNc2ccc3c(c2)Cc2cccc(-c4cc(N5CCOCC5)cc(=O)[nH]4)c2O3)n1` [Example 2-14-42, 6-(7-(((4-Methylthiazol-2-yl)methyl)amino)-9H-xanthen-4-yl)-4-morpholino pyridin-2(1H)-one], the IC50 was 100 to 500 nM.

Take `O=c1cc(N2CCOCC2)cc(-c2cccc3c2Oc2ccc(NC4CCN(Cc5ncccn5)CC4)cc2C3)[nH]1` [Example 2-28-3, 4-Morpholino-6-(7-((1-(pyrimidin-2-ylmethyl)piperidin-4-yl)amino)-9H-xanthen-4-yl)pyridin-2 (1H)-one]: the IC50 was in the range of 500 to 2000 nM.

Turning to `CC(CN1CCOCC1)Nc1ccc2c(c1)Sc1cccc(-c3cc(N4CCOCC4)cc(=O)[nH]3)c1S2` (single isomer, unassigned) [Example 1-13-2-3, 4-morpholino-6-(7-((1-morpholinopropan-2-yl)amino)thianthren-1-yl)pyridin-2(1H)-one], the IC50 is 100 to 500 nM.

As to `O=c1cc(N2CCOCC2)cc(-c2cccc3c2Sc2ccccc2S3)[nH]1` [Example 1-53, 4-morpholino-6-(thianthren-1-yl)pyridin-2(1H)-one], the IC50 lay in the range of 500 to 2000 nM.

As to `Cc1ccc(C(Nc2ccc3c(c2)Sc2cccc(-c4cc(N5CCOCC5)cc(=O)[nH]4)c2S3)[C@H]2CCN(C)C2)nc1` (single isomer, unassigned) [Example 1-56-14], the IC50 was less than 100 nM.

Consider `Cc1ccnc(C(CF)Nc2ccc3c(c2)Cc2cccc(-c4cc(N5CCOCC5)cc(=O)[nH]4)c2O3)n1` (centres unmarked) [Example 2-14-81, 6-(7-((2-Fluoro-1-(4-methylpyrimidin-2-yl)ethyl)amino)-9H-xanthen-4-yl)-4-morpholino pyridin-2(1H)-one], for which the IC50 is 100 to 500 nM.

`O=c1cc(N2CCOCC2)cc(-c2cccc3c2Oc2ccc(NCc4cncnc4)cc2C3)[nH]1` [Example 2-3-2, 4-Morpholino-6-(7-((pyrimidin-5-ylmethyl)amino)-9H-xanthen-4-yl) pyridin-2(1H)-one]: the IC50 was 100 to 500 nM.

Consider `O=c1cc(N2CCOCC2)cc(-c2cccc3c2Oc2ccc(NCc4cncc(-n5cncn5)c4)cc2C3)[nH]1` [Example 2-2-59, 6-(7-(((5-(1H-1,2,4-Triazol-1-yl)pyridin-3-yl)methyl)amino)-9H-xanthen-4-yl)-4-morpholino pyridin-2(1H)-one], for which the IC50 was in the range of 100 to 500 nM.

With `O=c1cc(N2CCOCC2)cc(-c2cccc3c2Oc2ccc(NC4CCN(CCc5ccccc5Cl)CC4)cc2C3)[nH]1` [Example 2-30-9, 6-(7-((1-(2-Chlorophenethyl)piperidin-4-yl)amino)-9H-xanthen-4-yl)-4-morpholino pyridin-2(1H)-one], the IC50 is 100 to 500 nM.

On to `CN1CCC(Nc2ccc3c(c2)Sc2cccc(-c4cc(N5CCOCC5)cc(=O)[nH]4)c2S3)C1` (centres unmarked) [Example 1-31-1, 6-(7-((1-Methylpyrrolidin-3-yl)amino)thianthren-1-yl)-4-morpholinopyridin-2(1H)-one], for which the IC50 was in the range of 100 to 500 nM.

Turning to `CN1CC(Nc2ccc3c(c2)Sc2cccc(-c4cc(N5CCOCC5)cc(=O)[nH]4)c2S3)C(N2CCOCC2)C1` (racemic) [Example 11-2, 6-(7-((1-Methyl-4-morpholinopyrrolidin-3-yl)amino)thianthren-1-yl)-4-morpholinopyridin-2(1H)-one], the IC50 fell in the range of 100 to 500 nM.

Turning to `COc1ccc(C2c3cc(N)ccc3Oc3c2ccnc3-c2cc(N3CCOCC3)cc(=O)[nH]2)cc1` (centres unmarked) [Example 2-66, Hydrochloride of 6-(7-amino-5-(4-methoxyphenyl)-5H-chromeno[2,3-c]pyridin-1-yl)-4-morpholinopyridin-2(1H)-one], the IC50 was in the range of 100 to 500 nM.

On to `N#Cc1ccc(CNc2ccc3c(c2)Sc2cccc(-c4cc(N5CCOCC5)cc(=O)[nH]4)c2S3)s1` [Example 1-12-51, 5-(((6-(4-Morpholino-6-oxo-1,6-dihydropyridin-2-yl)thianthren-2-yl)amino)methyl)thiophene-2-carbonitrile], for which the IC50 was in the range of 100 to 500 nM.

In the case of `CN1CCN(c2cc(CNc3ccc4c(c3)Cc3cccc(-c5cc(N6CCOCC6)cc(=O)[nH]5)c3O4)ccn2)CC1` [Example 2-22-2, 6-(7-(((2-(4-methylpiperazin-1-yl)pyridin-4-yl)methyl)amino)-9H-xanthen-4-yl)-4-morpholinopyridin-2(1H)-one], the IC50 is 100 to 500 nM.

For the compound `CCCCN1CCC(Nc2ccc3c(c2)Cc2cccc(-c4cc(N5CCOCC5)cc(=O)[nH]4)c2O3)CC1` [Example 2-28-33, 6-(7-((1-Butylpiperidin-4-yl)amino)-9H-xanthen-4-yl)-4-morpholino pyridin-2 (1H)-one], the IC50 lay within 100 to 500 nM.

For `COc1ccc(CNc2ccc3c(c2)Sc2cccc(-c4cc(N5CCOCC5)cc(=O)[nH]4)c2O3)cn1` [Example 4-8-11, 6-(8-(((6-Methoxypyridin-3-yl)methyl)amino)phenoxathiin-4-yl)-4-morpholino pyridin-2(1H)-one], the IC50 was in the range of 100 to 500 nM.

With `Cc1cnc(C(CCN(C)C)Nc2ccc3c(c2)Cc2cccc(-c4cc(N5CCOCC5)cc(=O)[nH]4)c2O3)cn1` (single isomer, unassigned) [Example 12-4, 6-(7-((3-(Dimethylamino)-1-(5-methylpyrazin-2-yl)propyl)amino)-9H-xanthen-4-yl)-4-morpholinopyridin-2(1H)-one], the IC50 was less than 100 nM.

`Cc1ccc(C(Nc2ccc3c(c2)Sc2cccc(-c4cc(N5CCOCC5)cc(=O)[nH]4)c2S3)C2CCN(C)C2)nc1` (single isomer, unassigned) [Example 10-3-5]: the IC50 was less than 100 nM.

As to `O=c1cc(N2CCOCC2)cc(-c2cccc3c2Sc2ccc(NC(CF)CN4CCOCC4)cc2S3)[nH]1` (single isomer, unassigned) [Example 1-41-1-3, 6-(7-((1-fluoro-3-morpholinopropan-2-yl)amino)thianthren-1-yl)-4-morpholinopyridin-2(1H)-one], the IC50 was in the range of 100 to 500 nM.

As to `CNc1ncccc1CNc1ccc2c(c1)Cc1cccc(-c3cc(N4CCOCC4)cc(=O)[nH]3)c1O2` [Example 2-2-26, 6-(7-(((2-(Methylamino)pyridin-3-yl)methyl)amino)-9H-xanthen-4-yl)-4-morpholino pyridin-2(1H)-one], the IC50 lay in the range of 100 to 500 nM.

For `Cc1cccc(C(CCN2CCCCC2)Nc2ccc3c(c2)Sc2cccc(-c4cc(N5CCOCC5)cc(=O)[nH]4)c2S3)n1` (centres unmarked) [Example 1-34-3, 6-(7-((1-(6-Methylpyridin-2-yl)-3-(piperidin-1-yl)propyl)amino)thianthren-1-yl)-4-morpholino pyridin-2(1H)-one], the IC50 was less than 100 nM.

As for `O=c1cc(N2CCOCC2)cc(-c2cccc3c2Sc2ccc(NC4CCN(C5CCCC5)C4)cc2S3)[nH]1` (centres unmarked) [Example 1-24-12, 6-(7-((1-Cyclopentylpyrrolidin-3-yl)amino)thianthren-1-yl)-4-morpholino pyridin-2(1H)-one], the IC50 is 100 to 500 nM.
